Measured values taken from publication PMC11679033, “Assessing the Potential Synergistic/Antagonistic Effects of Citrinin and Cannabidiol on SH-SY5Y, HepG2, HEK293 Cell Lines, and Human Lymphocytes” (Toxins, 2024).

Columns and labels:
[1] = design: method as in PMID 38908200; settings: 24 h exposure to CBD samples; cited from earlier work
[2] = tested on: human liver cell line (HepG2); design: method as in PMID 30341733; settings: cited from earlier work
human TK6 cells = tested on: human TK6 cells; design: method as in PMID 37105391; settings: up to 10–11 μg/mL, with and without metabolic activation; cited from earlier work
[3] = tested on: buccal-derived cells (TR146); design: method as in PMID 30341733; settings: cited from earlier work
[4] = tested on: human peripheral blood lymphocytes; experiment: Lymphocyte proliferation / cytotoxicity (CBPI, RI); type: cell-based; settings: 24 h, citrinin 7.50 µg/mL, CBD 3.15 µg/mL, bleomycin 1.25 µg/mL; for Cytokinesis-Block Proliferation Index: 3000 cells scored; for Replication Index (%): relative to negative control
Source text: (§1) On the same slides, parameters of cell proliferation, cytostasis and cytotoxicity were studied, according to recommendations by OECD 2023 [67]. For that purpose, the numbers of mono-, bi-, tri-, and quadrinuclear cells (i.e., M1, M2, M3, M4) were scored at 400× magnification using a light microscope (Leitz, Oberkochen, Germany). The total number of M1 to M4 cells counted per experimental group was 3000 (i.e., 6 × 500 cells).
(§2) Based on the scored ratios of M1 to M4 cells, the Cytokinesis-Block Proliferation Index (CBPI) was calculated, using the formula: CBPI = [(No. of mononucleated cells) + (2 × No. of binucleated cells) + (3 × No. of multinucleated cells)]/(Total number of cells).
(§3) To establish the relative number of cell cycles per cell during the period of exposure to cytoB in treated compared to control cultures, the Replication Index (RI) was also calculated according to the formula:RI = {[(<No. binucleated cells> + <2 × No. multinucleated cells>)/(Total number of cells in treated culture)]/[(<No. binucleated cells> + <2 × No. multinucleated cells>) […] (Total number of cells in control culture)]} × 100
(§4) Finally, from the obtained values of RI, the cytotoxicity estimate was deduced, as % Cytotoxicity = […].

[5] = Lymphocyte proliferation / cytotoxicity (CBPI, RI); type: cell-based, human; settings: human, citrinin 7.50 µg/mL, CBD 3.15 µg/mL, bleomycin 1.25 µg/mL, deduced from RI
Source text: as §1, §2, §3, §4

SH-SY5Y cells = experiment: Cell membrane integrity (LDH release), SH-SY5Y; type: cell-based, human; settings: 24 h, CBD 1 μM, CIT 30 μM, alone or combined
Method: Cell membrane integrity was determined after exposure to compounds’ concentrations corresponding to LOAEL concentrations in 24 h by measuring the release of the intracellular lactate dehydrogenase (LDH) and the procedure followed a previously described protocol using The CytoTox-ONE™ Homogeneous Membrane Integrity Assay (Promega, Madison, WI, USA). In short, the cells were seeded in black 96-well plates at a density of 10,000 cells/well one day before the experiment and treated with selected LOAEL concentrations. Triton X-100 at a final concentration of 0.18% (v/v) (stock of 9% in water) was used as a positive control to determine the maximal LDH release. Data were taken from at least two independent experiments (each treatment performed in duplicate or triplicate) and plotted as a percentage of LDH release compared to the determined maximal LDH release, according to the manufacturer’s calculation protocol.

A549 cells = tested on: A549 cells; design: method as in PMID 39057961; settings: A549, 24 h, sub-IC50 and near IC50 concentrations; cited from earlier work
[6] = tested on: cultured human lymphocytes; design: method as in PMID 17265422; settings: 48 h exposure, 60–100 μM; cited from earlier work
HEK293 cells = tested on: HEK293 cells; design: method as in PMID 13678658; settings: HEK293, concentrations ≤60 μM for 24 h; cited from earlier work
HepG2 cells = settings: cited from earlier work

SMILES	genomic instability estimated by CBMN Cyt Assay [1]	level above which damage was found in MN assay [2]	genotoxic hazard (human TK6 cells)	level above which damage was found in MN assay [3]	Cytokinesis-Block Proliferation Index [4]	Replication Index (%) [4] [%]	cytotoxicity at 24 h [5] [%]	cell membrane integrity (LDH release) (SH-SY5Y cells)	DNA damage in comet assay (A549 cells)	induction of MNi vs negative controls [6]	toxic effect in Fpg-modified comet assay (HEK293 cells)	DNA damage in comet assay (HepG2 cells; HepG2, 24 h, sub-IC50 and near IC50 concentrations)	genotoxicity in comet assay (HepG2 cells; HepG2)
C=C(C)[C@@H]1CCC(C)=C[C@H]1c1c(O)cc(CCCCC)cc1O [CBD, cannabidiol]	no changes in genomic instability	above 0.2 µM	did not pose a genotoxic hazard	above 0.2 µM	1.96^↓nc, sc	97.14	2.86	not significantly compromised	–	–	–	–	–
CC1=C2C(=CO[C@H](C)[C@H]2C)C(O)=C(C(=O)O)C1=O [CIT, citrinin]	–	–	–	–	1.83^↓nc, sc, cbd, &	83.46	16.5	not significantly compromised	induced significant DNA damage	significant induction of MNi	did not show toxic effect	induced significant DNA damage	no significant genotoxicity
